SMILES,melting point,boiling point,log10 vapour pressure (mmHg),log10 Henry constant (atm·m³/mol),ready biodegradability,log10 Koc (L/kg)
CCC(Br)(CC)C(=O)NC(N)=O,118 °C,,,,,
CCCCCCCC(=O)Oc1c(I)cc(C#N)cc1I,59.5 °C,,,,,
COc1cc2c(c(O)c1OC)CNCC2,188 °C,,,,,
CCC(=O)c1ccc2ccccc2c1,60 °C,313 °C,,,,
Nc1ccc(S(=O)(=O)Nc2cnccn2)cc1,251 °C,,,,,
O=C1c2cccc(O)c2C(=O)c2c(O)cccc21,193 °C,,,,,
FC(F)(F)c1cccc(Br)c1,1 °C,152 °C,,,,
Cc1ccc(F)cc1,-56 °C,117 °C,1.32,,,
FC(Cl)C(F)Cl (stereo not drawn),,46.8 °C,,,,
O=C1CCN(c2ccccc2)N1,126 °C,,,,,
NC(=O)c1cccnc1,130 °C,,,,,
COc1cc(C(=O)OCCCN(C)CCN(C)CCCOC(=O)c2cc(OC)c(OC)c(OC)c2)cc(OC)c1OC,76 °C,,,,,
C/C=C/C=O,-76.2 °C,103 °C,1.48,-4.84,,
Fc1ccc(NC(=S)Nc2cc(Cl)cc(Cl)c2)cc1,164 °C,,,,,
O=[N+]([O-])c1cccc(Cl)c1Cl,61.5 °C,258 °C,,,not readily biodegradable,
COCC#N,,119 °C,,,,
CCOC(=O)C(C)Oc1ccc(Oc2nc3ccc(Cl)cc3o2)cc1 (stereo not drawn),86.2 °C,,,,,3.98
CC1(C)C(C(=O)OC(C#N)c2cccc(Oc3ccccc3)c2)C1(C)C (stereo not drawn),47 °C,,-5.26,,,
CCCCCCCCC1CCCCC1,-20 °C,264 °C,-2.04,,,
CCC=C(C)CCC,,121 °C,,,,
Clc1ccc2oc3c(Cl)c(Cl)c(Cl)c(Cl)c3c2c1,178 °C,,-8.44,,,

SMILES,melting point,boiling point,log10 vapour pressure (mmHg),log10 Henry constant (atm·m³/mol),ready biodegradability,log10 Koc (L/kg)
CC1(C)OC(=O)CC1CC(=O)O (stereo not drawn),90 °C,,,,,
COC(=O)/C(C)=C/OP(=S)(OC)OC,,,-2.92,,,
c1ccc(-c2coc(-c3ccccc3)n2)cc1,103 °C,339 °C,,,,
O=Nc1c(O)ccc2ccccc12,110 °C,,,,,
CC(C)C(C)(C)C(C)C,-102 °C,142 °C,0.946,,,
CC1(C)C(=O)[C@@]2(C)CC[C@@H]1C2,,193 °C,,,,
Cc1cc2c(cc1Nc1ccccc1)C1(OC(=O)c3ccccc31)c1ccc(N(C)C3CCCCC3)cc1O2 (stereo not drawn),,,,,not readily biodegradable,
BrCCC1CCCCC1,-57 °C,212 °C,,,,
Nc1cccc(C(=O)O)c1,173 °C,,,,not readily biodegradable,
CCCCCCOCCCCCC,,223 °C,-1.34,,,
COc1ccc(N)c([N+](=O)[O-])c1,124 °C,,,,not readily biodegradable,
CC(O)C1CCCCC1 (stereo not drawn),,189 °C,,,,
O=C(O)CNCC(=O)O,248 °C,,,,,
C=CCCCBr,,126 °C,,,,
Cc1occc1C(=O)Nc1ccccc1,110 °C,,-6.82,,,2.48
Nc1ccn([C@@H]2O[C@H](CO)[C@@H](O)[C@@H]2O)c(=O)n1,212 °C,,,,,
Cc1cnc(C)cn1,15 °C,155 °C,,,,
COc1cc(Oc2ccc(Cl)cc2Cl)ccc1[N+](=O)[O-],114 °C,,-4.85,,,
O=C1CCCCC1C1CCCCC1 (stereo not drawn),-32 °C,264 °C,,,,
O=[N+]([O-])c1cccc(CCl)c1,46 °C,,,,,
OCC(c1ccccc1)c1ccccc1,64.5 °C,,,,,

SMILES,melting point,boiling point,log10 vapour pressure (mmHg),log10 Henry constant (atm·m³/mol),ready biodegradability,log10 Koc (L/kg)
COC(=O)C(C)Cl (stereo not drawn),,132 °C,,,readily biodegradable,
CCC(CC)Nc1c([N+](=O)[O-])cc(C)c(C)c1[N+](=O)[O-],56 °C,330 °C,-4.52,,,3.7
O=C(N/N=C/c1ccccc1O)c1ccncc1,232 °C,,,,,
Cc1cnccc1N,108 °C,,,,,
CCC=C(C)C=C(C)C,,138 °C,,,,
Clc1ccc(-c2ccccc2)cc1Cl,,,,-3.85,,
Clc1ccc(-c2c(Cl)c(Cl)cc(Cl)c2Cl)c(Cl)c1,,,,-4.29,,
Clc1ccc(-c2c(Cl)cc(Cl)c(Cl)c2Cl)cc1Cl,107 °C,,,,,
O=S(=O)(O)c1ccc2ccccc2c1,91 °C,,,,,
Cc1ccc([N+](=O)[O-])cc1,51.6 °C,238 °C,-1.8,-5.25,not readily biodegradable,
Cc1ccc2c(C)ccc(C(C)C)c2c1,,294 °C,,,,
COC(=O)C(F)(F)C(F)(F)C(F)(F)C(F)(F)C(F)(F)C(F)(F)C(F)(F)F,,158 °C,,,,
CCc1cn([C@H]2C[C@H](O)[C@@H](CO)O2)c(=O)[nH]c1=O,152 °C,,,,,
O=[N+]([O-])c1ccc(Br)c(Cl)c1,,,,,,2.6
O=C(O)CCCCCCCCCCF,36 °C,,,,,
COc1cc(O)c(C(C)=O)c(OC)c1,82 °C,,,,,
CCCCCCCCCCCCCCCCCO,53.8 °C,333 °C,,,readily biodegradable,
CCCCCCCCCCCCCCCCCBr,32 °C,349 °C,-4.74,,,
C[C@@H]1CCC[C@H](C)N1,,127 °C,,,not readily biodegradable,
CCCCC(CC)COC(=O)COc1cc(Cl)c(Cl)cc1Cl (stereo not drawn),,,-5.92,,,
CCCCCCCCOC(=O)CCCCC,-28 °C,275 °C,,,,

# From the OPERA property sets (Mansouri et al. 2018)
